# Data published in patent publication US20240270762A1, “PENICILLIN-BINDING PROTEIN INHIBITORS” (priority 2021, published 2024).
# pEC50: −log10 of the molar value.
# Experiments:
# [1] = system: P. aeruginosa (ΔmexAB-oprM); assay: Broth microdilution MIC in iron-depleted CAMHB (IDM); assay type: cell-based; settings: Pseudomonas aeruginosa; iron-depleted CAMHB (IDM); […]; read-out: Minimum inhibitory concentration, P. aeruginosa ΔmexAB-oprM
# [2] = system: P. aeruginosa ATCC 35151; assay: microbe, parasite or virus in culture; assay type: cell-based; settings: Pseudomonas aeruginosa, ATCC35151, read-out: Minimum inhibitory concentration, P. aeruginosa ATCC 35151
# [3] = system: A. baumannii CDC-0083; assay: microbe, parasite or virus in culture; assay type: cell-based; settings: Acinetobacter baumannii, CDC0083, read-out: MIC, A. baumannii CDC-0083
# [4] = system: A. baumannii CDC-0045; assay: microbe, parasite or virus in culture; assay type: cell-based; settings: Acinetobacter baumannii, CDC0045, read-out: MIC, A. baumannii CDC-0045
# [5] = system: P. aeruginosa CDC-0054; assay: microbe, parasite or virus in culture; assay type: cell-based; settings: Pseudomonas aeruginosa, CDC0054, read-out: Minimum inhibitory concentration, P. aeruginosa CDC-0054
# [6] = system: A. baumannii CDC-0033; assay: microbe, parasite or virus in culture; assay type: cell-based; settings: Acinetobacter baumannii, CDC0033, read-out: MIC, A. baumannii CDC-0033
# [7] = system: B. thailandensis ATCC 700388; assay: microbe, parasite or virus in culture; assay type: cell-based; settings: Burkholderia thailandensis, ATCC700388, read-out: Minimum inhibitory concentration (MIC), B. thailandensis ATCC 700388
# [8] = system: B. humptydooensis ATCC BAA-2767; assay: microbe, parasite or virus in culture; assay type: cell-based; settings: Burkholderia humptydooensis, ATCCBAA2767, read-out: Minimum inhibitory concentration (MIC), B. humptydooensis ATCC BAA-2767
# [9] = system: A. baumannii ATCC 19606; assay: microbe, parasite or virus in culture; assay type: cell-based; settings: Acinetobacter baumannii, ATCC19606, read-out: MIC, A. baumannii ATCC 19606
# [10] = system: A. baumannii 1258916; assay: microbe, parasite or virus in culture; assay type: cell-based, Acinetobacter baumannii; settings: Acinetobacter baumannii, 1258916, read-out: MIC, A. baumannii 1258916
# [11] = target: A. baumannii PBP2 (Acinetobacter baumannii, UniProt D0C8Z9); assay: Bocillin-FL competition binding via gel filtration, A. baumannii PBP2
# Procedure, shortened: (§1)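 Competitive equilibrium binding; reporter Bocillin-FL. PBP + inhibitor (titration) pre-incubated → Bocillin-FL, 15 min → gel filtration → fluorescence. EC50 from Hill fit of fraction bound vs [inhibitor].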
# [12] = system: A. baumannii ATCC 17978; assay: microbe, parasite or virus in culture; assay type: cell-based; settings: Acinetobacter baumannii, ATCC17978, read-out: MIC, A. baumannii ATCC 17978
# [13] = system: P. aeruginosa CDC-0095; assay: microbe, parasite or virus in culture; assay type: cell-based; settings: Pseudomonas aeruginosa, CDC0095, read-out: Minimum inhibitory concentration, P. aeruginosa CDC-0095
# [14] = system: P. aeruginosa CDC-0110; assay: microbe, parasite or virus in culture; assay type: cell-based; settings: Pseudomonas aeruginosa, CDC0110, read-out: Minimum inhibitory concentration, P. aeruginosa CDC-0110
# [15] = target: T1, A. baumannii PBP1a (Acinetobacter baumannii, UniProt A0ABX6CK30); assay: Bocillin-FL competition binding via gel filtration, A. baumannii PBP1a; settings: competition binding assay using Bocillin-FL via gel filtration; read-out: A. baumannii PBP1a Potency
# T1 sequence (A0ABX6CK30 1-851): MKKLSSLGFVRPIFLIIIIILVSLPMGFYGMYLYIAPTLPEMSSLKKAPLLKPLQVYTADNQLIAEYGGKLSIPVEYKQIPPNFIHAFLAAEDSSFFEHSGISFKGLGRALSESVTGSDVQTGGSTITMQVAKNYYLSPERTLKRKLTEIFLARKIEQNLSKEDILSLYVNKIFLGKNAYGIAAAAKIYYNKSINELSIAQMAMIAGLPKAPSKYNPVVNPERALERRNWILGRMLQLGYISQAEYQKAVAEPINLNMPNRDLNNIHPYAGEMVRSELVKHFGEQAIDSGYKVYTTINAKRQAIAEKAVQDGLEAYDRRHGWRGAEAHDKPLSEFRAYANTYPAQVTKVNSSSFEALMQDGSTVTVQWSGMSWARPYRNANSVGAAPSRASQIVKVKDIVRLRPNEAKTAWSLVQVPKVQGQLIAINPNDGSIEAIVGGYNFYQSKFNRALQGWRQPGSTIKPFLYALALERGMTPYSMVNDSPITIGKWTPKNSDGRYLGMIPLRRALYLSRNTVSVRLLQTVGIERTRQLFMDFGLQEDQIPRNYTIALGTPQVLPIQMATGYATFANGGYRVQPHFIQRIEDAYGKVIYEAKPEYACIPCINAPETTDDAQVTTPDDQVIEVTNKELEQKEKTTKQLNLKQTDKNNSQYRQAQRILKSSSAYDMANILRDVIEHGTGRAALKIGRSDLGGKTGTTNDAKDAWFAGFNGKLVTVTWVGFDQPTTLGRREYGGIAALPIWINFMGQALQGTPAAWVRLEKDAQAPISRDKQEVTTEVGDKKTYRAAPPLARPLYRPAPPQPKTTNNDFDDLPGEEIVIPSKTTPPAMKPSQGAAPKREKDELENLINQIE
# Procedure, shortened: as §1
# [16] = system: P. aeruginosa CDC-0090; assay: microbe, parasite or virus in culture; assay type: cell-based; settings: Pseudomonas aeruginosa, CDC0090, read-out: Minimum inhibitory concentration, P. aeruginosa CDC-0090
# Sequence of A. baumannii PBP2 (D0C8Z9 whole entry): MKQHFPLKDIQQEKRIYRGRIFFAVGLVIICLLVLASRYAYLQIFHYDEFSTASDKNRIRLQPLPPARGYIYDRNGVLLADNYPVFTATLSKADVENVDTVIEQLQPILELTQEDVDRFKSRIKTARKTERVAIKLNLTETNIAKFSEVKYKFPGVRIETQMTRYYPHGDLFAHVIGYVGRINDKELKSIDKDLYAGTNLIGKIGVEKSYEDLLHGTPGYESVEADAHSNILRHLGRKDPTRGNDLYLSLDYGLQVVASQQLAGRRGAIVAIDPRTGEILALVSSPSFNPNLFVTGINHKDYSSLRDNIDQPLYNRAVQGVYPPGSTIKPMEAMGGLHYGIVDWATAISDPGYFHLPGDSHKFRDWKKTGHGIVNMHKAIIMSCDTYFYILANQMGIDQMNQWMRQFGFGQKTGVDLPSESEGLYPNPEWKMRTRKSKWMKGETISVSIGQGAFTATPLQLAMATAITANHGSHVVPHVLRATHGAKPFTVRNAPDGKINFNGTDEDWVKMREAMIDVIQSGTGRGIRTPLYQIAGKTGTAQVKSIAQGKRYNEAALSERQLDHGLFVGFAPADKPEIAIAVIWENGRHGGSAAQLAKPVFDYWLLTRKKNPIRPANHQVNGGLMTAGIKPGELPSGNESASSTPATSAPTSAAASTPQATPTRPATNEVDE
smiles,measurement,setting,value
O=C(NCCCN1CCN(C(=O)N[C@@H](C(=O)N[C@H]2Cc3ccc(F)c(C(=O)O)c3OB2O)c2cc(F)c(O)c(O)c2Cl)C(=O)C1=O)c1c(F)cc(O)cc1F (racemic) [Example 420],MIC,[1],< 1 µg/mL
same,MIC,[2],< 1 µg/mL
same,MIC,[3],> 128 µg/mL
same,MIC,[4],< 1 µg/mL
same,MIC,[5],2 to 4 µg/mL
same,MIC,[6],2 to 4 µg/mL
same,MIC,[7],2 to 4 µg/mL
same,MIC,[8],3 µg/mL
same,MIC,[9],< 1 µg/mL
same,MIC,[10],2 to 4 µg/mL
same,pEC50,[11],4.30 to 5.00
same,MIC,[12],< 1 µg/mL
same,MIC,[13],2 to 4 µg/mL
same,MIC,[14],< 1 µg/mL
same,pEC50,[15],4.30 to 5.00
same,MIC,[16],< 1 µg/mL
O=C(NCCCN1CCN(C(=O)NC(C(=O)N[C@H]2Cc3ccc(F)c(C(=O)O)c3OB2O)c2cc(F)c(O)c(O)c2Cl)C(=O)C1=O)c1cc(F)ncc1F (mixture of isomers) [Example 405],MIC,[1],< 1 µg/mL
same,MIC,[2],< 1 µg/mL
same,MIC,[3],< 1 µg/mL
same,MIC,[4],< 1 µg/mL
same,MIC,[5],2 to 4 µg/mL
same,MIC,[6],2 to 4 µg/mL
same,MIC,[7],< 1 µg/mL
same,MIC,[8],2 to 4 µg/mL
same,MIC,[9],< 1 µg/mL
same,MIC,[10],2 to 4 µg/mL
same,pEC50,[11],4.30 to 5.00
same,MIC,[12],< 1 µg/mL
same,MIC,[13],2 to 4 µg/mL
same,MIC,[14],2 to 4 µg/mL
same,pEC50,[15],4.30 to 5.00
same,MIC,[16],2 to 4 µg/mL
O=C(NCCCN1CCN(C(=O)N[C@@H](C(=O)N[C@H]2Cc3ccc(F)c(C(=O)O)c3OB2O)c2cc(F)c(O)c(O)c2Cl)C(=O)C1=O)c1cc(F)nc(F)c1 (racemic) [Example 401],MIC,[1],< 1 µg/mL
same,MIC,[2],< 1 µg/mL
same,MIC,[3],2 to 4 µg/mL
same,MIC,[4],< 1 µg/mL
same,MIC,[5],< 1 µg/mL
same,MIC,[6],2 to 4 µg/mL
same,MIC,[7],> 128 µg/mL
same,MIC,[8],> 128 µg/mL
same,MIC,[9],< 1 µg/mL
same,MIC,[10],< 1 µg/mL
same,pEC50,[11],4.30 to 5.00
same,MIC,[12],< 1 µg/mL
same,MIC,[13],< 1 µg/mL
same,MIC,[14],< 1 µg/mL
same,pEC50,[15],> 5.00
same,MIC,[16],< 1 µg/mL
"O=C(NCCCN1CCN(C(=O)NC(C(=O)N[C@H]2Cc3ccc(F)c(C(=O)O)c3OB2O)c2cc(F)c(O)c(O)c2Cl)C(=O)C1=O)c1ccc(O)c(Cl)c1 (stereo partly drawn) [Example 305, (3R)-3-(2-(4-(3-(3-chloro-4-hydroxybenzamido)propyl)-2,3-dioxopiperazine-1-carboxamido)-2-(2-chloro-5-fluoro-3,4-dihydroxyphenyl)acetamido)-7-fluoro-2-hydroxy-3,4-dihydro-2H-benzo[e][1,2]oxaborinine-8-carboxylic acid]",MIC,[1],< 1 µg/mL
same,MIC,[2],< 1 µg/mL
same,MIC,[3],2 to 4 µg/mL
same,MIC,[4],2 to 4 µg/mL
same,MIC,[5],2 to 4 µg/mL
same,MIC,[6],2 to 4 µg/mL
same,MIC,[7],2 to 4 µg/mL
same,MIC,[8],2 to 4 µg/mL
same,MIC,[9],< 1 µg/mL
same,MIC,[10],< 1 µg/mL
same,pEC50,[11],> 5.00
same,MIC,[12],< 1 µg/mL
same,MIC,[13],2 to 4 µg/mL
same,MIC,[14],< 1 µg/mL
same,pEC50,[15],> 5.00
same,MIC,[16],< 1 µg/mL
